Experiments:
[1] = molecular target: T1, Histone deacetylase 11 (Homo sapiens) (UniProt Q96DB2); experiment: (§1) Inhibition of recombinant C-terminal His-tagged HDAC11 (unknown origin) expressed in baculovirus infected Sf9 cells at 2 uM using Ac-Arg-Gly-Lys(Ac)-AMC as substrate pretreated for 3 hrs followed by substrate addition after 30 mins by fluorometric method relative to control
T1 sequence (whole entry): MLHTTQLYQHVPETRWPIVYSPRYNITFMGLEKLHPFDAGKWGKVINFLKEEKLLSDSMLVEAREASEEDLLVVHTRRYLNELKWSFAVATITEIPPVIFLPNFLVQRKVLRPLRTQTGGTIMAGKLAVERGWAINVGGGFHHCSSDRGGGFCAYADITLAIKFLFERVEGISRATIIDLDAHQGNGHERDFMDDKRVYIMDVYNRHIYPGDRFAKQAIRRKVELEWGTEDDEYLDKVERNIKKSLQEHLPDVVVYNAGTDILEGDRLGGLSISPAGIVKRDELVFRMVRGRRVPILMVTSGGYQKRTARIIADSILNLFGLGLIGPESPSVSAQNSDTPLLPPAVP

[2] = molecular target: T1, Histone deacetylase 11 (Homo sapiens); experiment: as §1, with “mins in presence of 0.2 uM SAHA” for “mins”
[3] = molecular target: T1, Histone deacetylase 11 (Homo sapiens); experiment: Inhibition of recombinant C-terminal His-tagged HDAC11 (unknown origin) expressed in baculovirus infected Sf9 cells at 5 uM using Ac-Arg-Gly-Lys(Ac)-AMC as substrate pretreated followed by substrate addition after 30 mins by fluorometric method; details: TDE = time-dependent effect
[4] = molecular target: T2, Histone deacetylase 11 (Homo sapiens, UniProt Q96DB2); experiment: Inhibition of recombinant C-terminal His-tagged HDAC11 (unknown origin) expressed in baculovirus infected Sf9 cells using Ac-Arg-Gly-Lys(Ac)-AMC as substrate pretreated for 3 hrs followed by substrate addition after 30 mins by fluorometric method
T2 sequence (Q96DB2 whole entry): T1 sequence (whole entry)

[5] = molecular target: T2, Histone deacetylase 11; experiment: Inhibition of recombinant C-terminal His-tagged HDAC11 (unknown origin) expressed in baculovirus infected Sf9 cells using Ac-Arg-Gly-Lys(Ac)-AMC as substrate pretreated for 3 hrs followed by substrate addition after 30 mins in presence of 0.2 uM SAHA by fluorometric method

SMILES	inhibition [1] [%]	inhibition [2] [%]	inhibition [3]	IC50 [4] [nM]	IC50 [5] [nM]
Nc1ccccc1NC(=O)/C=C/c1cn([C@H]2C[C@@H](C(=O)O)N(CCCc3ccccc3)C2)nn1	< 0	< 10	–	–	–
Nc1ccccc1NC(=O)/C=C/c1cn([C@@H]2C[C@@H](C(=O)O)N(CCc3ccccc3)C2)nn1	< 10	< 10	–	–	–
Nc1ccccc1NC(=O)/C=C/c1cn([C@@H]2C[C@H](CO)N(CCc3ccccc3)C2)nn1	< 0	< 10	–	–	–
Nc1ccccc1NC(=O)/C=C/c1cn([C@H]2C[C@@H](C(=O)O)N(Cc3ccccc3)C2)nn1	< 0	< 10	–	–	–
Nc1ccccc1NC(=O)/C=C/c1cn([C@H]2C[C@H](C(=O)O)N(CCc3ccccc3)C2)nn1	< 0	< 10	–	–	–
Nc1ccccc1NC(=O)/C=C/c1cn([C@@H]2C[C@@H](C(=O)O)N(Cc3ccccc3)C2)nn1	< 0	< 10	–	–	–
Nc1ccccc1NC(=O)/C=C/c1cn([C@H]2C[C@H](C(=O)O)N(CCCc3ccccc3)C2)nn1	< 0	< 10	–	–	–
Nc1ccccc1NC(=O)/C=C/c1cn([C@@H]2C[C@H](C(=O)O)N(CCc3ccccc3)C2)nn1	< 0	< 10	–	–	–
Nc1ccccc1NC(=O)c1ccc(CNC(=O)OCc2cccnc2)cc1 [ENTINOSTAT]	67	59	Tde	900	1300
Nc1ccccc1NC(=O)/C=C/c1cn([C@H]2C[C@@H](CO)N(Cc3ccccc3)C2)nn1	31	36	–	2140	–
Nc1ccccc1NC(=O)/C=C/c1cn([C@H]2C[C@@H](CO)N(CCCc3ccccc3)C2)nn1	< 0	19	–	–	–
Nc1ccccc1NC(=O)/C=C/c1cn([C@@H]2C[C@H](C(=O)O)N(CCCc3ccccc3)C2)nn1	< 10	< 10	–	–	–
Nc1ccccc1NC(=O)/C=C/c1cn([C@H]2C[C@@H](CO)N(CCc3ccccc3)C2)nn1	< 10	20	–	–	–
Nc1ccccc1NC(=O)/C=C/c1cn([C@@H]2C[C@H](CO)N(Cc3ccccc3)C2)nn1	< 10	14	–	–	–
Nc1ccccc1NC(=O)/C=C/c1cn([C@H]2C[C@H](CO)N(CCCc3ccccc3)C2)nn1	< 10	16	–	–	–
Nc1ccccc1NC(=O)/C=C/c1cn([C@@H]2C[C@@H](C(=O)O)N(CCCc3ccccc3)C2)nn1	< 10	< 10	–	–	–
Nc1ccccc1NC(=O)/C=C/c1cn([C@@H]2C[C@H](CO)N(CCCc3ccccc3)C2)nn1	< 0	12	–	–	–
Nc1ccccc1NC(=O)/C=C/c1cn([C@H]2C[C@@H](C(=O)O)N(CCc3ccccc3)C2)nn1	–	< 10	–	–	–
Nc1ccccc1NC(=O)/C=C/c1cn([C@@H]2C[C@@H](CO)N(Cc3ccccc3)C2)nn1	< 10	22	–	–	–
Nc1ccccc1NC(=O)/C=C/c1cn([C@H]2C[C@H](C(=O)O)N(Cc3ccccc3)C2)nn1	12	< 10	–	–	–
Nc1ccccc1NC(=O)/C=C/c1cn([C@H]2C[C@H](CO)N(Cc3ccccc3)C2)nn1	< 0	14	–	–	–
Nc1ccccc1NC(=O)/C=C/c1cn([C@@H]2C[C@@H](CO)N(CCc3ccccc3)C2)nn1	–	< 10	–	–	–
Nc1ccccc1NC(=O)/C=C/c1cn([C@@H]2C[C@H](C(=O)O)N(Cc3ccccc3)C2)nn1	–	< 10	–	–	–
Nc1ccccc1NC(=O)/C=C/c1cn([C@@H]2C[C@@H](CO)N(CCCc3ccccc3)C2)nn1	< 10	13	–	–	–
Nc1ccccc1NC(=O)/C=C/c1cn([C@H]2C[C@H](CO)N(CCc3ccccc3)C2)nn1	< 10	< 10	–	–	–

Source: ChEMBL document CHEMBL4020776, “Stabilizing HDAC11 with SAHA to assay slow-binding benzamide inhibitors” (Bioorg Med Chem Lett, 2017)
